Source: US9023616B2, “Oil producing microbes and method of modification thereof” (DSM Nutritional Products AG, priority 2006, dated 2015)
“Also recorded” adds a separate entry of the source.

Test system: ONC-T18
Experiment: Fatty acid production antagonist supplementation of ONC-T18 culture, fatty acid profile by FAME GC-FID
Type: cell-based, Thraustochytrium sp. ONC-T18
Details: for adrenic acid, lipid as percentage of total fatty acid / arachidic acid, lipid as percentage of total fatty acid / arachidonic acid, lipid as percentage of total fatty acid / behenic acid, lipid as percentage of total fatty acid / docosadienoic acid, lipid as percentage of total fatty acid / docosahexaenoic acid, lipid as percentage of total fatty acid / docosapentaenoic acid n-3, lipid as percentage of total fatty acid / docosapentaenoic acid n-6, lipid as percentage of total fatty acid / eicosadienoic acid, lipid as percentage of total fatty acid / eicosapentaenoic acid, lipid as percentage of total fatty acid / eicosatetraenoic acid, lipid as percentage of total fatty acid / eicosatrienoic acid, lipid as percentage of total fatty acid / eicosenoic acid, lipid as percentage of total fatty acid / heneicosapentaenoic acid, lipid as percentage of total fatty acid / hexacosanoic acid, lipid as percentage of total fatty acid / homo-gamma-linolenic acid, lipid as percentage of total fatty acid / lignoceric acid, lipid as percentage of total fatty acid / margaric acid, lipid as percentage of total fatty acid / myristic acid, lipid as percentage of total fatty acid / myristoleic acid, lipid as percentage of total fatty acid / nervonic acid, lipid as percentage of total fatty acid / oleic acid, lipid as percentage of total fatty acid / palmitic acid, lipid as percentage of total fatty acid / palmitoleic acid, lipid as percentage of total fatty acid / pentadecanoic acid, lipid as percentage of total fatty acid / pentadecenoic acid, lipid as percentage of total fatty acid / stearic acid, lipid as percentage of total fatty acid / vaccenic acid, lipid as percentage of total fatty acid: presence of the antagonist, oleic acid without glucose
Experimental: Media containing 25 g/l sea salt and 1 g/l yeast extract was autoclaved at 120° C. for 20 minutes. Sterilized glucose was added to the media at a concentration of 9 g/l. Sethoxydim (Supleco) was dissolved in dimethyl sulfoxide at a concentration of 5 mg/ml was then added to the media at to represent a final concentration of 100 µM. 1 ml of a 24 hour pre-culture of ONC-T 18 that had been cultured in the same media was added. Culturing was carried out in a shaker (130 rpm) for four days at room temperature. After the incubation period, cells were harvested by centrifugation at 4300 rpm for 10 minutes. The cell pellets were then freeze-dried, weighed and the oil was extracted from the cells.
(§1) The lipids were extracted and derivatized to fatty acid methyl esters (FAME) for gas chromatography analysis (GC). Transesterification and extraction was done using 200 mg freeze dried cells, with C19:0 as internal standard, added transesterification reaction mix (methanol:hydrochloric acid:chloroform, 10:1:1) mixed and heated at 90° C. for 2 hours, then allowed to cool at room temperature. FAMEs were extracted by adding 1 ml water, and 2 ml hexane:chloroform (4:1), and allow organic and aqueous phases to separate. The organic layer was extracted and treated with 0.5 g of anhydrous sodium sulfate to remove particulates and residual water. The organic solvents were evaporated under a stream of argon. The FAMEs were re-suspended in 5 ml of iso-octane and analyzed by GC-FID. The percent conversion was calculated by dividing the product produced by the sum of (the product produced plus the substrate added) and then multiplying by 100.
Media containing 6 g/l sea salt, 2 g/l yeast extract, and 8 g/l L-glutamic acid monosodium salt hydrate was autoclaved at 120° C. for 20 minutes. Sterilized D+-glucose was then added to this media at a concentration of 40 g/l. Cerulenin dissolved in ethanol at a concentration of 5 mg/ml was added to 250 ml flask and the solvent was evaporated for 1 hour prior to adding the media to the flask. The amount of cerulenin in the flask represented a final concentration of 20 mg/l. ONC-T18 was then added to the medium from a plate culture and culturing occurred in a shaker (130 rpm) at room temperature for four days. After the incubation period, cells were harvested by centrifugation at 4300 rpm for 10 minutes, washed once with distilled water, and then centrifuged again at 4300 rpm for 10 minutes. The cell pellets were then freeze-dried, weighed and the oil was extracted from the cells.
as §1, with “produced+the” for “produced plus the”
Media containing 6 g/l sea salt, 2 g/l yeast extract, and 8 g/l L-glutamic acid monosodium salt hydrate was autoclaved at 120° C. for 20 minutes. Sterilized D+-glucose wad then added at a concentration of 5 g/l or was not added to the media. Oleic acid was added to the media to represent a final concentration of 2 ml/l. […]

Row | SMILES | adrenic acid, lipid as percentage of total fatty acid [%] | arachidic acid, lipid as percentage of total fatty acid [%] | arachidonic acid, lipid as percentage of total fatty acid [%] | behenic acid, lipid as percentage of total fatty acid [%] | docosadienoic acid, lipid as percentage of total fatty acid [%] | docosahexaenoic acid, lipid as percentage of total fatty acid [%] | docosapentaenoic acid n-3, lipid as percentage of total fatty acid [%] | docosapentaenoic acid n-6, lipid as percentage of total fatty acid [%] | eicosadienoic acid, lipid as percentage of total fatty acid [%] | eicosapentaenoic acid, lipid as percentage of total fatty acid [%] | eicosatetraenoic acid, lipid as percentage of total fatty acid [%] | eicosatrienoic acid, lipid as percentage of total fatty acid [%] | eicosenoic acid, lipid as percentage of total fatty acid [%] | heneicosapentaenoic acid, lipid as percentage of total fatty acid [%] | hexacosanoic acid, lipid as percentage of total fatty acid [%] | homo-gamma-linolenic acid, lipid as percentage of total fatty acid [%] | lignoceric acid, lipid as percentage of total fatty acid [%] | margaric acid, lipid as percentage of total fatty acid [%] | myristic acid, lipid as percentage of total fatty acid [%] | myristoleic acid, lipid as percentage of total fatty acid [%] | also measured
1 | COc1cc(CNC(=O)CCCC/C=C/C(C)C)ccc1O [capsaicin] | 0.46 | 0.20 | 0.78 | 0.00 | 0.17 | 16.86 | 0.31 | 5.19 | 0.23 | 1.38 | 0.27 | 0.00 | 0.00 | 0.00 | 0.00 | 0.22 | 0.00 | 0.19 | 21.86 | 0.28 | C16:0 content in ONC-T18, change versus control (in words) (antagonist added to medium): decrease in the content of C16:0; C16:1 content in ONC-T18, change versus control (in words) (antagonist added to medium): increase the content of C16:1; nervonic acid, lipid as percentage of total fatty acid: 0.00%; oleic acid, lipid as percentage of total fatty acid: 0.00%; palmitic acid, lipid as percentage of total fatty acid: 24.19%; palmitoleic acid, lipid as percentage of total fatty acid: 17.98%; pentadecanoic acid, lipid as percentage of total fatty acid: 0.91%; pentadecenoic acid, lipid as percentage of total fatty acid: 0.23%; stearic acid, lipid as percentage of total fatty acid: 1.60%; vaccenic acid, lipid as percentage of total fatty acid: 6.67%
2 | C/C=C/C/C=C/CCC(=O)[C@H]1O[C@H]1C(N)=O [cerulenin] | 0.00 | 0.41 | 0.30 | 0.11 | 0.14 | 19.97 | 0.23 | 5.83 | 0.17 | 1.17 | 0.36 | 0.00 | 0.19 | 1.24 | 0.23 | 0.20 | 0.00 | 0.74 | 11.03 | 0.00 | C16:0 content in ONC-T18, change versus control (in words) (antagonist added to medium): increases; DHA accumulated in ONC-T18, change versus control (in words) (antagonist added to medium): increases; also recorded: increase in the content and proportion of DHA; nervonic acid, lipid as percentage of total fatty acid: 0.00%; oleic acid, lipid as percentage of total fatty acid: 0.29%; palmitic acid, lipid as percentage of total fatty acid: 48.98%; palmitoleic acid, lipid as percentage of total fatty acid: 2.22%; pentadecanoic acid, lipid as percentage of total fatty acid: 3.23%; pentadecenoic acid, lipid as percentage of total fatty acid: 0.10%; stearic acid, lipid as percentage of total fatty acid: 1.86%; vaccenic acid, lipid as percentage of total fatty acid: 1.24%
3 | Cc1ccccc1C(=O)O [toluic acid] | 0.46 | 0.23 | 0.90 | 0.00 | 0.06 | 23.03 | 0.54 | 5.95 | 0.79 | 2.95 | 0.36 | 0.03 | 0.14 | 0.39 | 0.00 | 0.17 | 0.03 | 2.69 | 11.19 | 0.00 | nervonic acid, lipid as percentage of total fatty acid: 0.18%; oleic acid, lipid as percentage of total fatty acid: 0.11%; palmitic acid, lipid as percentage of total fatty acid: 26.90%; palmitoleic acid, lipid as percentage of total fatty acid: 2.36%; pentadecanoic acid, lipid as percentage of total fatty acid: 14.93%; pentadecenoic acid, lipid as percentage of total fatty acid: 0.27%; stearic acid, lipid as percentage of total fatty acid: 1.59%; vaccenic acid, lipid as percentage of total fatty acid: 3.68%
